Measured values: ChEMBL document CHEMBL3414550 (J Med Chem, 2015)

Assays:
Oxytocin receptor [1] = target: T1, Oxytocin receptor (Homo sapiens, UniProt P30559); experiment: Competitive binding to SNAP-tagged oxytocin receptor (unknown origin) expressed in HEK293 cells incubated for 1 hr at RT followed by 4 hrs at 4 degC by TR-FRET assay in presence of 5-(3-(22-(3-carboxy-4-(3-oxo-3H-xanthen-9-yl)phenyl)-15,22-dioxo-2,5,8,11-tetraoxa-14,21-diazadocosyl)-5-(3-(2-chloro-4-fluorophenoxy)azetidin-1-yl)-4H-1,2,4-triazol-4-yl)-2-methoxypyridinium 2,2,2-trifluoroacetate; assay type: cell-based
T1 sequence (P30559 whole entry): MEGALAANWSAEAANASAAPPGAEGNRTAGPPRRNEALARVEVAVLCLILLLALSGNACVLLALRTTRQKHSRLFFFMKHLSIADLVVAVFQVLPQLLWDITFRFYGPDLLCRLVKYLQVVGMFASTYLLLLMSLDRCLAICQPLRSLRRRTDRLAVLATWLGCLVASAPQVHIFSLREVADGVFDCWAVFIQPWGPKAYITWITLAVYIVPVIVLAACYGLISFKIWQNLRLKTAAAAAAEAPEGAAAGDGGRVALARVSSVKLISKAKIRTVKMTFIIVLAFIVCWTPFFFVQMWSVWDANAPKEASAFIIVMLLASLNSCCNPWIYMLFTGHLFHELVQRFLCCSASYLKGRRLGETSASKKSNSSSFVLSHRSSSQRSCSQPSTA

Oxytocin receptor [2] = target: T1, Oxytocin receptor; experiment: Binding affinity to OTR (unknown origin)
Vasopressin V2 receptor [3] = target: T2, Vasopressin V2 receptor (Homo sapiens, UniProt P30518); experiment: Binding affinity to V2R (unknown origin)
T2 sequence (P30518 whole entry): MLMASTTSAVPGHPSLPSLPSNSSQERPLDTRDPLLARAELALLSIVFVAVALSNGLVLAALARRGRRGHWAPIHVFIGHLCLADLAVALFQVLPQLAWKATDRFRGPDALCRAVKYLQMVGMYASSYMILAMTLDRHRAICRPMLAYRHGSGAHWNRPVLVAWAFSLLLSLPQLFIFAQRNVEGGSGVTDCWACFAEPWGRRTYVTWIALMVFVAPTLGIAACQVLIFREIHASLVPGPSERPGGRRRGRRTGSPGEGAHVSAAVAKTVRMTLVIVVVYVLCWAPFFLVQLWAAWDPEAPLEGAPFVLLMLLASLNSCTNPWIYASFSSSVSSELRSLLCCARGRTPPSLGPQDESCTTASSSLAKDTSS

Oxytocin receptor [4] = target: T1, Oxytocin receptor; experiment: Competitive binding to SNAP-tagged oxytocin receptor (unknown origin) expressed in HEK293 cells incubated for 1 hr at RT followed by 4 hrs at 4 degC by TR-FRET assay in presence of 2-(5-(3-(1-(5-(3-(2-chloro-4-fluorophenoxy)azetidin-1-yl)-4-(6-methoxypyridinium-3-yl)-4H-1,2,4-triazol-3-yl)-15-oxo-2,5,8,11-tetraoxa-14-azaoctadecan-18-yl)-1-ethyl-3-methyl-5-sulfoindolin-2-ylidene)penta-1,3-dienyl)-1 …; assay type: cell-based
Vasopressin V1a receptor [5] = target: T3, Vasopressin V1a receptor (Homo sapiens, UniProt P37288); experiment: Binding affinity to V1aR (unknown origin)
T3 sequence (P37288 whole entry): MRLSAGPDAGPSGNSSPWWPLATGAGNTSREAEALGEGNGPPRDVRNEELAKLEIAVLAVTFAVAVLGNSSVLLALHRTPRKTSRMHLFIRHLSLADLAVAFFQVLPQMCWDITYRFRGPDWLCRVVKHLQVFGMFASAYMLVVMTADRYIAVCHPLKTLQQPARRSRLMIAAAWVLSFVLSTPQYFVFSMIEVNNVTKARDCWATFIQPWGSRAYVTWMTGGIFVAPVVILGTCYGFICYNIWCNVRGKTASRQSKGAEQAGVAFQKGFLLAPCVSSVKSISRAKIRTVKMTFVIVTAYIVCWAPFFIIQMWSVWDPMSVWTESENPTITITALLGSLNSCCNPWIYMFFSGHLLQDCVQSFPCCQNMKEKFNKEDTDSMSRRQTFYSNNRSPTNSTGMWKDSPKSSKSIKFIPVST

Vasopressin V1b receptor = target: T4, Vasopressin V1b receptor (Homo sapiens, UniProt P47901); experiment: Binding affinity to V1bR (unknown origin) expressed in HEK293 cells by TR-FRET assay; assay type: cell-based
T4 sequence (P47901 whole entry): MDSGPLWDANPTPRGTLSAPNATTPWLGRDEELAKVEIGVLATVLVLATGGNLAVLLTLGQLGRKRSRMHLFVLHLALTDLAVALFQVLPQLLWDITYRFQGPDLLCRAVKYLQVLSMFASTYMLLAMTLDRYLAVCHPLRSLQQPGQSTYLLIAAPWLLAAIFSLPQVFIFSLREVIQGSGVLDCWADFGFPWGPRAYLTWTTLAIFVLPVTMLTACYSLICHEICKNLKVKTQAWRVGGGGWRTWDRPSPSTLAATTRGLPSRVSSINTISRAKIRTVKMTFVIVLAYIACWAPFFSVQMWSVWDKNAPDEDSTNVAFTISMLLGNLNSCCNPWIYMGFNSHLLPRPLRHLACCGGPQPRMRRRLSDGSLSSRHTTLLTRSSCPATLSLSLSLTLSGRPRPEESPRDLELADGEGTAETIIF

Oxytocin receptor [6] = target: T1, Oxytocin receptor; experiment: Binding affinity to SNAP-tagged oxytocin receptor (unknown origin) expressed in HEK293 cells by TR-FRET assay; assay type: cell-based
Vasopressin V1a receptor [7] = target: T3, Vasopressin V1a receptor; experiment: Binding affinity to V1aR (unknown origin) expressed in HEK293 cells by TR-FRET assay; assay type: cell-based
[8] = Retention time of the compound by RP-HPLC analysis; assay type: physicochemical
Oxytocin receptor [9] = target: T1, Oxytocin receptor; experiment: Binding affinity to SNAP-tagged oxytocin receptor (unknown origin) expressed in HEK293 cells assessed as dissociation constant after 5 to 120 mins by TR-FRET assay; assay type: cell-based
Oxytocin receptor [10] = target: T1, Oxytocin receptor; experiment: Binding affinity to SNAP-tagged oxytocin receptor (unknown origin) expressed in HEK293 cells assessed as association constant after 5 to 120 mins by TR-FRET assay; assay type: cell-based
Vasopressin V2 receptor [11] = target: T2, Vasopressin V2 receptor; experiment: Binding affinity to V2R (unknown origin) expressed in HEK293 cells by TR-FRET assay; assay type: cell-based
Homo sapiens = species: Homo sapiens; experiment: Selectivity ratio of Kd for V1aR (unknown origin) to Kd for SNAP-tagged oxytocin receptor (unknown origin)

Structure (SMILES)	Ki (Oxytocin receptor [1])	Ki (Oxytocin receptor [2])	Ki (Vasopressin V2 receptor [3])	Ki (Oxytocin receptor [4])	Ki (Vasopressin V1a receptor [5])	Kd (Vasopressin V1b receptor)	Kd (Oxytocin receptor [6])	Kd (Vasopressin V1a receptor [7])	Retention_time [8]	koff (Oxytocin receptor [9])	kon (Oxytocin receptor [10])	Kd (Vasopressin V2 receptor [11])	Ratio (Homo sapiens)
Cc1ccn(Cc2ccc(C(=O)N3Cc4cnn(C)c4Nc4ccccc43)cc2C)n1	6.22 nM	27.8 nM	913 nM	6.6 nM	18 nM	–	–	–	–	–	–	–	–
COc1ccc(-n2c(COCCOCCOCCOCCNC(=O)CCCCCNC(=O)c3ccc(-c4c5ccc(=O)cc-5oc5cc(O)ccc45)c(C(=O)O)c3)nnc2N2CC(Oc3ccc(F)cc3Cl)C2)cn1.O=C(O)C(F)(F)F	–	–	–	–	–	> 1000 nM	1.59 nM	> 1000 nM	4.38 min	18.9 ×10⁻³ /min	3.57 ×10⁶ /M/min	> 1000 nM	–
COc1ccc(-n2c(COCCOCCOCCOCCOCCOCCOCCOCCNC(=O)CCCCCNC(=O)c3ccc(-c4c5ccc(=O)cc-5oc5cc(O)ccc45)c(C(=O)O)c3)nnc2N2CC(Oc3ccc(F)cc3Cl)C2)cn1.O=C(O)C(F)(F)F	–	–	–	–	–	> 1000 nM	2.05 nM	> 1000 nM	4.39 min	–	–	> 1000 nM	–
O=C(CCCCCNC(=O)c1ccc2c(c1)C(=O)OC21c2ccc(O)cc2Oc2cc(O)ccc21)ON1C(=O)CCC1=O	–	–	–	–	–	–	–	–	4 min	–	–	–	–

Results, then the molecule that gave them:

Ki (Oxytocin receptor [1])	Ki (Oxytocin receptor [2])	Ki (Vasopressin V2 receptor [3])	Ki (Oxytocin receptor [4])	Ki (Vasopressin V1a receptor [5])	Kd (Vasopressin V1b receptor)	Kd (Oxytocin receptor [6])	Kd (Vasopressin V1a receptor [7])	Retention_time [8]	koff (Oxytocin receptor [9])	kon (Oxytocin receptor [10])	Kd (Vasopressin V2 receptor [11])	Ratio (Homo sapiens)	Structure (SMILES)
–	–	–	–	–	> 1000 nM	1.59 nM	> 1000 nM	3.94 min	10.9 ×10⁻³ /min	4.03 ×10⁶ /M/min	509 nM	–	CCN1\C(=C/C=C/C=C/C2=[N+](CC)c3cc(S(=O)(=O)[O-])ccc3C2(C)C)C(C)(CCCC(=O)NCCOCCOCCOCCOCc2nnc(N3CC(Oc4ccc(F)cc4Cl)C3)n2-c2ccc(OC)nc2)c2cc(S(=O)(=O)O)ccc21.O=C(O)C(F)(F)F (stereo not drawn)
–	–	–	–	–	–	–	–	3.17 min	–	–	–	–	CCN1\C(=C/C=C/C=C/C2=[N+](CC)c3cc(S(=O)(=O)[O-])ccc3C2(C)C)C(C)(CCCC(=O)ON2C(=O)CCC2=O)c2cc(S(=O)(=O)O)ccc21 (stereo not drawn)
–	–	–	–	–	> 1000 nM	1.86 nM	> 1000 nM	3.97 min	–	–	353 nM	–	CCN1\C(=C/C=C/C=C/C2=[N+](CC)c3cc(S(=O)(=O)[O-])ccc3C2(C)C)C(C)(CCCC(=O)NCCOCCOCCOCCOCCOCCOCCOCCOCc2nnc(N3CC(Oc4ccc(F)cc4Cl)C3)n2-c2ccc(OC)nc2)c2cc(S(=O)(=O)O)ccc21.O=C(O)C(F)(F)F (stereo not drawn)
–	–	–	–	–	> 1000 nM	1.37 nM	19.7 nM	3.96 min	–	–	30.5 nM	14	CCN1\C(=C/C=C/C=C/C2=[N+](CC)c3cc(S(=O)(=O)[O-])ccc3C2(C)C)C(C)(CCCC(=O)NCCNC(=O)CCc2ccc(S(=O)(=O)N(CC(=O)N/N=C3\C(=O)Nc4ccccc43)c3ccc(Cl)cc3)cc2)c2cc(S(=O)(=O)O)ccc21 (stereo not drawn)
–	–	–	–	–	> 1000 nM	1.73 nM	61 nM	4.68 min	–	–	135 nM	35	O=C(CCCCCNC(=O)c1ccc(-c2c3ccc(=O)cc-3oc3cc(O)ccc23)c(C(=O)O)c1)NCCNC(=O)CCc1ccc(S(=O)(=O)N(CC(=O)N/N=C2\C(=O)Nc3ccccc32)c2ccc(Cl)cc2)cc1
